Like-named read-outs stand apart in the source and are kept apart here.
Legend:
5-HT1A receptors [1] = biological target: T1, 5-HT1A receptors (Rattus norvegicus, UniProt P19327); test: In vitro binding test, 5-HT1A receptors, [3]H-8-OH-DPAT, rat hippocampus membranes; design: Hippocampus from the brains of decapitated rats; from tissue; host or cells: rat hippocampus membranes (male Wistar); species or system rat (male Wistar)
T1 sequence (P19327 1-422): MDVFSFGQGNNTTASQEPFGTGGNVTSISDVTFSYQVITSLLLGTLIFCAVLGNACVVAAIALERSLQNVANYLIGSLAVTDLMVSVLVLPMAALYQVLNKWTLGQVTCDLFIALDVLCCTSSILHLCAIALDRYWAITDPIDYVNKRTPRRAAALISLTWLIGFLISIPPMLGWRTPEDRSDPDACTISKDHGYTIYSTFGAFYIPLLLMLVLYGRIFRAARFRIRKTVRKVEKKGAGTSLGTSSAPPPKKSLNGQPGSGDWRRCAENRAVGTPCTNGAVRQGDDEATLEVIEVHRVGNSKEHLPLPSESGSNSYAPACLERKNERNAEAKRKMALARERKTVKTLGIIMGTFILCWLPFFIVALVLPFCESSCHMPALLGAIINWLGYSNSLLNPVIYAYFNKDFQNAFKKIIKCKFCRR
Description: Hippocampus from the brains of decapitated rats was immediately frozen on dry ice and then stored at -80° C. until preparation of membranes. The tissue was homogenised at 4° C. in the appropriate buffer using a Polytron (Brinkman Instruments - Lucerne - Switzerland) and centrifuged at 20,000 rpm.
Incubation was carried out at 25° C. for 30 minutes. Non-specific binding was defined by 10 μM of 5-HT. The tests were terminated by rapid filtration by means of a Brandel harvester over glass-fibre filters pretreated with 0.1% polyethyleneimine.
The inhibitory concentration 50 values (IC50) were determined according to method 8 of Tallarida R. J. and Murray R. B., Manual of pharmacological calculations with computer programs, Springer Verlag, N.Y. (1987).
The pKi was calculated according to the formula [formula] where [L] is the concentration of the hot ligand ([3]H-8-OH-DPAT, 0.4 nM) and Kd is the apparent dissociation constant determined from saturation experiments.
The test substances were dissolved in the incubation buffer.

5-HT1A receptors [2] = biological target: T1, 5-HT1A receptors; test: Body temperature (hypothermia), agonist and antagonist activity; format: in vivo, male Wistar rats; design: from tissue; host or cells: whole animal, male Wistar rat (in vivo); conditions: for Hypothermia M.E.D.: agonist: induction of hypothermia, s.c., minimum effective dose; for ED50: rat, sc, 1 h, antagonist: inhibition of hypothermia induced by 8-OH-DPAT 0.16 mg/kg s.c., compound s.c. 60 min before test, read-out: Hypothermia ID50 (95% C.L.)
Description: (§1) The tests were carried out on male Wistar rats weighing from 200 to 220 g which had free access to food and drinking water, in standard cages.
(§2) The animals are housed individually for the hypothermia, corticosterone secretion and flat body posture tests, and in groups of three for the tail flick test.
(§3) The laboratory temperature is kept at 21°±1° C., with 60 ±5% humidity. The rats are subjected to a light/dark cycle of 12 hours/12 hours (the light cycle commencing at 7.30 a.m.).
(§4) a/ General procedure for tests of agonist and antagonist activities on 5-HT1A receptors.
(§5) The test compounds were administered subcutaneously (s.c.) 60 minutes before the start of the test, that is to say 30 minutes before the vehicle (agonist responses) or 8-OH-DPAT (antagonist responses).
(§6) In all the tests, the solvent is used in parallel as the control. The animals were allowed to rest in their cages during the time between the injections and evaluation.
(§7) For the agonist studies, the solvent was administered at a dose of 1 ml/kg s.c. 30 minutes before the start of the test. For the antagonist studies, doses of 8-OH-DPAT inducing sub-maximal responses were chosen, i.e. doses of 0.63, 0.16, 0.16 and 0.16 mg/kg s.c. for the tail flick test, the flat body posture test, the corticosterone secretion test and the hypothermia test, respectively.
The rats are immobilised and a lubricated digital thermometer (Thermistoprobe from Testotherm, Basle, Switzerland) is inserted into the rectum to a depth of 5 cm. 30 seconds after insertion, the temperature is read off a digital scale. The percentage inhibition is calculated with the aid of the formula mentioned above.
(§8) In general, after variance analysis, the results are subjected to Dunnett's test. Results are regarded as significant if p<0.05.
(§9) The doses of the test compounds are all expressed in terms of the base. Unless otherwise mentioned, all the compounds were dissolved in sterile water (to which a few drops of lactic acid are added, if necessary) and administered at a volume of 1 ml/kg s.c..

5-HT1A receptors [3] = biological target: T1, 5-HT1A receptors; test: Flat body posture (FBP), agonist response and antagonism of 8-OH-DPAT; format: in vivo, male Wistar rats; design: from tissue; host or cells: whole animal, male Wistar rat (in vivo); conditions: sc
Description: as §1, §2, §3, §4, §5, §6, §7
(§10) The same animals were employed for the evaluation of the effect of the test compounds on the FBP and for the determination of the plasma levels of CS. All the tests were carried out in the morning between 10.30 and 12.30, i.e. when the cicardian levels of CS are at their lowest.
25 minutes after the treatment (i.e. 5 minutes before decapitation), the animals are observed in their cages and the presence or absence of FBP is noted.
(§11) The presence of FBP is defined by a characteristic posture of the animal. The animal is then in a position of ventral decubitus with the hind limbs clearly in extension. 5 minutes after observation of FBP, the animals are decapitated and the trunk blood is collected in chilled tubes containing 50 μl of a 10% EDTA solution. After centrifugation at 4000 rpm, the plasma is removed and stored at -30° C. until assay.
as §8
For the dose-response for induction and inhibition of FBP, the effective doses 50 (ED50) (doses at which 50% of the animals show a response) were calculated by the method of Litchfield and Wilcoxon.
as §9

5-HT1A receptors [4] = biological target: T1, 5-HT1A receptors; test: Corticosterone secretion (CS), plasma, agonist and antagonist activity; format: in vivo, male Wistar rats; design: from tissue; host or cells: whole animal, male Wistar rat (in vivo); conditions: for Corticosterone secretion M.E.D.: agonist: induction of CS, s.c., minimum effective dose; for ED50: rat, sc, 1 h, antagonist: inhibition of CS induced by 8-OH-DPAT 0.16 mg/kg s.c., compound s.c. 60 min before test, read-out: Corticosterone secretion ID50 (95% C.L.)
Description: as §1, §2, §3, §4, §5, §6, §7, §10, §11
CS was determined using a radio-competitive assay for a CS-binding protein in plasma: transcortin. The latter is obtained from monkey serum. Separation of the CS-transcortin complexes from free CS was effected by means of a solution of dextran and active charcoal. The detection limit was 50 pg/tube. Intra- and inter-assay variations were 5 and 15%, respectively [cf. Rivet J. M. et al., Eur. J. Pharmacol., 183, 634-635 (1990)].
Since the base levels of CS in plasma are never zero, the following formula was used to calculate the percentage inhibition of plasmatic CS induced by 8-OH-DPAT: [formula]
as §8, §9

5-HT1A receptors [5] = biological target: T1, 5-HT1A receptors; test: Spontaneous tail flick test (STF), agonist and antagonist activity; format: in vivo, male Wistar rats; design: from tissue; host or cells: whole animal, male Wistar rat (in vivo); conditions: for Spontaneous tail flicks M.E.D.: agonist: induction of STF, s.c., minimum effective dose; for ED50: rat, sc, 1 h, antagonist: inhibition of STF induced by 8-OH-DPAT 0.63 mg/kg s.c., compound s.c. 60 min before test, read-out: Spontaneous tail flicks ID50 (95% C.L.)
Description: as §1, §2, §3, §4, §5, §6, §7
Tail flicks were determined in animals restrained in horizontal, opaque plastics cylinders, the animals' tails hanging freely over the edge of the laboratory bench. After a 5-minute adaptation period, the number of movements made in 5 minutes is recorded. One STF is defined as the raising of the tail to a level higher than the level of the body axis [Millan M. J. et al., J. Pharmacol. Exp. Ther., 256, 973-982 (1990)].
as §8, §9

[6] = 1 h, read-out: Flat body posture ED50 (95% C.L.), antagonism of 8-OH-DPAT, inhibition of FBP, 8-OH-DPAT 0.16 mg/kg s.c., compound s.c. 60 min before test
[7] = induction of FBP, s.c., dose at which 50% of the animals show a response, read-out: Flat body posture ED50 (95% C.L.), agonist response
[8] = hot ligand [3]H-8-OH-DPAT 0.4 nM, rat hippocampus membranes, 25° C., 30 minutes, read-out: Affinity (pKi) (converted)

| SMILES | Ki (5-HT1A receptors [1]; [8]) [nM] | Affinity (pKi) (5-HT1A receptors [1]; hot ligand [3]H-8-OH-DPAT 0.4 nM, rat hippocampus membranes, 25° C., 30 minutes) | Ki (5-HT1A receptors [1]) [nM] | Hypothermia M.E.D. (5-HT1A receptors [2]) [mg/kg] | ED50 (5-HT1A receptors [2]) [mg/kg] | ED50 (5-HT1A receptors [3]; [6]) [mg/kg] | ED50 (5-HT1A receptors [3]; [7]) [mg/kg] | Corticosterone secretion M.E.D. (5-HT1A receptors [4]) [mg/kg] | ED50 (5-HT1A receptors [4]) [mg/kg] | Spontaneous tail flicks M.E.D. (5-HT1A receptors [5]) [mg/kg] | ED50 (5-HT1A receptors [5]) [mg/kg] |
| --- | --- | --- | --- | --- | --- | --- | --- | --- | --- | --- | --- |
| c1ccc2c(c1)CC2CN1CCN(c2cccc3c2OCCO3)CC1 (racemic) [Example 1, (R,S)-4-(benzodioxan-5-yl)-1-[(benzocyclobutan-1-yl)methyl]-piperazine] | – | – | 1.82 | 10.0 | 0.5 | 0.71 | > 10 | > 2.5 | < 2.5 | > 10.0 | 0.09 |
| c1ccc2c(c1)CC2CCN1CCN(c2cccc3c2OCCO3)CC1 (racemic) [Example 2, (R,S)-4-(benzodioxan-5-yl)-1-[2-(benzocyclobutan-1-yl)-ethyl]-piperazine] | – | – | 0.617 | 40.0 | 0.65 | 0.76 | > 20 | 10.0 | 0.66 | > 10.0 | 0.085 |
| c1ccc2c(c1)CC2CCN1CCN(c2cccc3c2OCCCO3)CC1 (racemic) [Example 3, (R,S)-4-[benzo(1,5)dioxepin-6-yl]-1-[2-(benzocyclobutan-1-yl)-ethyl]-piperazine] | – | – | – | > 20.0 | 1.64 | 1.55 | > 10 | > 10.0 | 2.15 | > 10.0 | 0.32 |
| c1ccc2c(c1)CC2CCCCN1CCN(c2cccc3c2OCCO3)CC1 (racemic) [Example 8, (R,S)-4-(benzodioxan-5-yl)-1-[4-(benzocyclobutan-1-yl)-butyl]-piperazine] | – | – | 1.58 | – | – | – | – | – | – | – | – |
| c1ccc2c(c1)CC2CCCN1CCN(c2cccc3c2OCCO3)CC1 (racemic) [Example 13, (R,S)-4-(benzodioxan-5-yl)-1-[3-(benzocyclobutan-1-yl)-propyl]-piperazine] | – | – | – | 10.0 | 0.21 | 0.57 | > 10 | 10.0 | 1.27 | > 10.0 | 0.13 |
| c1ccc2c(c1)CCC2CN1CCN(c2cccc3c2OCCO3)CC1 (racemic) [Example 15, (R,S)-4-(benzodioxan-5-yl)-1-[(indan-1-yl)-methyl]-piperazine] | – | – | 2 | 10.0 | 1.53 | ≥ 2.5 | > 2.5 | > 2.5 | > 2.5 | – | 0.085 |
| c1ccc2c(c1)CCC2CCN1CCN(c2cccc3c2OCCO3)CC1 (racemic) [Example 22, (R,S)-4-(benzodioxan-5-yl)-1-[2-(indan-1-yl)-ethyl]-piperazine] | – | – | – | > 40.0 | 1.19 | 1.03 | > 10 | > 10.0 | 1.92 | > 10.0 | 0.74 |
| c1ccc2c(c1)CCC2CCCN1CCN(c2cccc3c2OCCO3)CC1 (racemic) [Example 23, (R,S)-4-(benzodioxan-5-yl)-1-[3-(indan-1-yl)-propyl]piperazine] | – | – | – | 5.0 | 0.4 | 0.29 | 10 | > 2.5 | < 2.5 | – | 0.56 |
| c1ccc2c(c1)CC(N1CCN(c3cccc4c3OCCO4)CC1)C2 [Example 7, 4-(benzodioxan-5-yl)-1-(indan-2-yl)-piperazine] | – | 8.75 | – | 20.0 | 1.6 | 0.52 | > 10 | > 10.0 | 2.5 | > 10.0 | 0.74 |
| C1=C(CCN2CCN(c3cccc4c3OCCO4)CC2)c2ccccc2C1 [Example 18, 4-(benzodioxan-5-yl)-1-[2-(ind-1-en-1-yl)-ethyl]-piperazine] | – | – | 0.813 | – | – | – | – | – | – | – | – |

Further lines, with some results ahead:

| Ki (5-HT1A receptors [1]; [8]) [nM] | Affinity (pKi) (5-HT1A receptors [1]; hot ligand [3]H-8-OH-DPAT 0.4 nM, rat hippocampus membranes, 25° C., 30 minutes) | SMILES | Ki (5-HT1A receptors [1]) [nM] | Hypothermia M.E.D. (5-HT1A receptors [2]) [mg/kg] | ED50 (5-HT1A receptors [2]) [mg/kg] | ED50 (5-HT1A receptors [3]; [6]) [mg/kg] | ED50 (5-HT1A receptors [3]; [7]) [mg/kg] | Corticosterone secretion M.E.D. (5-HT1A receptors [4]) [mg/kg] | ED50 (5-HT1A receptors [4]) [mg/kg] | Spontaneous tail flicks M.E.D. (5-HT1A receptors [5]) [mg/kg] | ED50 (5-HT1A receptors [5]) [mg/kg] |
| --- | --- | --- | --- | --- | --- | --- | --- | --- | --- | --- | --- |
| 1.41 | – | COc1ccc2c(c1)C(CCN1CCN(c3cccc4c3OCCO4)CC1)C2 (racemic) [Example 16, (R,S)-4-(benzodioxan-5-yl)-1-[2-(5-methoxybenzocyclobutan-1-yl)-ethyl]-piperazine] | – | – | – | – | – | – | – | – | – |
| 3.47 | – | COc1cc2c(cc1OC)C(CCN1CCN(c3cccc4c3OCCO4)CC1)C2 (racemic) [Example 17, (R,S)-4-(benzodioxan-5-yl)-1-[2-(4,5-dimethoxybenzocyclobutan-1-yl)-ethyl]-piperazine] | – | – | – | – | – | – | – | – | – |
| 1.48 | – | COc1cc2c(cc1OC)C(CCN1CCN(c3cccc4c3OCCO4)CC1)CC2 (racemic) [Example 19, (R,S)-4-(benzodioxan-5-yl)-1-[2-(5,6-dimethoxyindan-1-yl)-ethyl]-piperazine] | – | – | – | – | – | – | – | – | – |

Reference: patent US5194437A, “1,4-disubstituted piperazines” (Adir et Compagnie, priority 1990, dated 1993)
